pIC50: −log10 of the molar value. Several values for one entry are separate records, joined by “and”; a condition that tells them apart may be missing. Equal values may be shown once.
Assays:
[1] = biological target: T1, Poly [ADP-ribose] polymerase tankyrase-2 (Homo sapiens, UniProt Q9H2K2)
T1 sequence (Q9H2K2 whole entry): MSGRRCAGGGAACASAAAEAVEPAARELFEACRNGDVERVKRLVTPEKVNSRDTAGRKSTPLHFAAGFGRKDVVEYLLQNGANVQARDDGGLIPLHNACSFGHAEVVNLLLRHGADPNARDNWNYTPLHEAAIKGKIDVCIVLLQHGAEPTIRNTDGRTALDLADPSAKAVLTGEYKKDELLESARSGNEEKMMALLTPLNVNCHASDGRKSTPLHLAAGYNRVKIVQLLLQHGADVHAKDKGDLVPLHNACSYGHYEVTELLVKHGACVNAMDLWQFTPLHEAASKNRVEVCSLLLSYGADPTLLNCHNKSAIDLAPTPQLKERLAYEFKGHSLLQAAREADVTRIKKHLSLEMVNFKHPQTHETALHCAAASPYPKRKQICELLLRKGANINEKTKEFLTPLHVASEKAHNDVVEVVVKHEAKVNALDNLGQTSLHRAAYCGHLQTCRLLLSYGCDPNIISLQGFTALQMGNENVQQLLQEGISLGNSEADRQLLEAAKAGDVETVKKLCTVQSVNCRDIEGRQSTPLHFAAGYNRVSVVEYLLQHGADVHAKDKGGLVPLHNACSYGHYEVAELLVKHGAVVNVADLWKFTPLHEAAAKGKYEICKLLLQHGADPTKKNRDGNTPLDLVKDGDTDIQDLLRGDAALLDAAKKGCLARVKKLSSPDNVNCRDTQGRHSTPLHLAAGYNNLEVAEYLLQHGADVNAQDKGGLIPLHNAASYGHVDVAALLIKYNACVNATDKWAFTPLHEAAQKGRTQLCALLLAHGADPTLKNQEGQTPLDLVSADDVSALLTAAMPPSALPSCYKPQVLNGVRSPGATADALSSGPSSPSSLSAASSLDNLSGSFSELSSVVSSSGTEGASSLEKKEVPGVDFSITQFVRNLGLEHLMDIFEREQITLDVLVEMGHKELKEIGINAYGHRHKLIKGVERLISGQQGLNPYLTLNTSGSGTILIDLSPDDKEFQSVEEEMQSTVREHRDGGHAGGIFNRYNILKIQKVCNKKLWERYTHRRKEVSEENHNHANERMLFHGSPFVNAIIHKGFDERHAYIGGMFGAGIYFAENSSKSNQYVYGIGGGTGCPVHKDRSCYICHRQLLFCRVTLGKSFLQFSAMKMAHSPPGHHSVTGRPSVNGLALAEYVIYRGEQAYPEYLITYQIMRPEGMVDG
Description: Inhibition of human TNKS2 (956 to 1161 and 873 to 1161) using 500 nM NAD substrate after 20 mins incubation by fluorescence assay

HEK293 = experiment: Cytotoxicity against HEK293 cells assessed as cell viability at 2.5 to 10 uM; format: cell-based; details: human, hek293, 10 µM
[2] = biological target: T2, Poly [ADP-ribose] polymerase tankyrase-1 (Homo sapiens, UniProt O95271); experiment: Inhibition of human TNKS1 (1030 to 1317) using NAD substrate after 20 mins incubation by fluorescence assay
T2 sequence (O95271 whole entry): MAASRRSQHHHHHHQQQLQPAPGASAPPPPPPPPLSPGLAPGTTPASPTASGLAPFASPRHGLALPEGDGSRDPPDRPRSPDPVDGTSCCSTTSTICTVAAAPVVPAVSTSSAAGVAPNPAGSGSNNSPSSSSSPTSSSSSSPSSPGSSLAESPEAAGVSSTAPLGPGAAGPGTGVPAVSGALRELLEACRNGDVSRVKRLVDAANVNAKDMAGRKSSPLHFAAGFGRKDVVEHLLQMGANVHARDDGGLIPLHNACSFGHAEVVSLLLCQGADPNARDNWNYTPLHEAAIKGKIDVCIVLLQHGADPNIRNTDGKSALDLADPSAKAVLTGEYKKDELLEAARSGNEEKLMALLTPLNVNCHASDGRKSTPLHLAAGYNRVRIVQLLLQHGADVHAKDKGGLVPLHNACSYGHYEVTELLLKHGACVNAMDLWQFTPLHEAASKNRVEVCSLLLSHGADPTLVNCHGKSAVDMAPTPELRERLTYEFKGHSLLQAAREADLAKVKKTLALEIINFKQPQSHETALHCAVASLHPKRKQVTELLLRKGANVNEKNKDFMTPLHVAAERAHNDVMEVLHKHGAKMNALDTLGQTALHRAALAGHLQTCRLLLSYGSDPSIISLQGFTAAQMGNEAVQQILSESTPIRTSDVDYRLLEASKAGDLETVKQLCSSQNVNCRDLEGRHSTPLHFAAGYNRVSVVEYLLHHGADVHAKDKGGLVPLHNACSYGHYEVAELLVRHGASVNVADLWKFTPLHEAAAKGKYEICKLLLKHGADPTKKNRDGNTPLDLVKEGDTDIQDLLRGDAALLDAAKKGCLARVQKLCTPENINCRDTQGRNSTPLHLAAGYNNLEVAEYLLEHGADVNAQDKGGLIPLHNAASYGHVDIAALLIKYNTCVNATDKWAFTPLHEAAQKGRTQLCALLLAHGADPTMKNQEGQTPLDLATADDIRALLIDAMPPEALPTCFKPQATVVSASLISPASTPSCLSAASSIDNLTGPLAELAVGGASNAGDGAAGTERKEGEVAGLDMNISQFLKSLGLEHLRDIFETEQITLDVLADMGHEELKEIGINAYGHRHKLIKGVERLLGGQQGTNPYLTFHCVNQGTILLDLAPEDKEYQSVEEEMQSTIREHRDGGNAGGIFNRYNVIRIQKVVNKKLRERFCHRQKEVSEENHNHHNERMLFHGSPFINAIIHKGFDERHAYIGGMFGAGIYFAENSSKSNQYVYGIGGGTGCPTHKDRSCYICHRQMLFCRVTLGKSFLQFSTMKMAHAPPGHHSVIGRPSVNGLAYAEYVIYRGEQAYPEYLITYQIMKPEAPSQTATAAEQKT

[3] = biological target: Poly [ADP-ribose] polymerase 2 (Homo sapiens, UniProt Q9UGN5); experiment: Inhibition of full-length human ARTD2 using 500 nM NAD substrate after 3 hrs incubation
[4] = biological target: Protein mono-ADP-ribosyltransferase PARP4 (Homo sapiens, UniProt Q9UKK3); experiment: Inhibition of human ARTD4 (250 to 565) using 500 nM NAD substrate after 2.5 hrs incubation
[5] = biological target: T3, Protein mono-ADP-ribosyltransferase PARP15 (Homo sapiens, UniProt Q460N3); experiment: Inhibition of human ARTD7 (460 to 656) using 250 nM NAD substrate after 2 hrs incubation
T3 sequence (Q460N3 whole entry): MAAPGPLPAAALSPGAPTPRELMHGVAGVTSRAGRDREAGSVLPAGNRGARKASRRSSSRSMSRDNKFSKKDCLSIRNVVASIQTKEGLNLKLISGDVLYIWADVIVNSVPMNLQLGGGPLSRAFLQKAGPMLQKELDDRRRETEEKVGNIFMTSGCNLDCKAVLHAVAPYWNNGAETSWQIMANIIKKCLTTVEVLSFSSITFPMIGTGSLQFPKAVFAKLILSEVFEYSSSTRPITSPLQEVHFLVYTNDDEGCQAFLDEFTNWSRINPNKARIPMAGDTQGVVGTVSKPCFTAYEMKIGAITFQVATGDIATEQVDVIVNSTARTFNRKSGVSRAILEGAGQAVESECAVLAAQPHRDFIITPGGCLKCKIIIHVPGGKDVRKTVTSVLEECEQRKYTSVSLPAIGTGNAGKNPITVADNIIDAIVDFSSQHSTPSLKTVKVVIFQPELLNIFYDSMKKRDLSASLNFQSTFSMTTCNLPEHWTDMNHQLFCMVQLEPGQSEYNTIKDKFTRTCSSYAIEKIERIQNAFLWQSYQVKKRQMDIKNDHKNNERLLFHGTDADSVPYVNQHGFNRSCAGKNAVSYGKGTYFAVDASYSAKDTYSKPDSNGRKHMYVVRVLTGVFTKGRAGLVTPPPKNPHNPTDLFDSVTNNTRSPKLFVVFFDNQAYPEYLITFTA

[6] = biological target: T4, Protein mono-ADP-ribosyltransferase PARP10 (Homo sapiens, UniProt Q53GL7); experiment: Inhibition of human ARTD10 (809 to 1017) using 500 nM NAD substrate after 2.5 hrs incubation
T4 sequence (Q53GL7 whole entry): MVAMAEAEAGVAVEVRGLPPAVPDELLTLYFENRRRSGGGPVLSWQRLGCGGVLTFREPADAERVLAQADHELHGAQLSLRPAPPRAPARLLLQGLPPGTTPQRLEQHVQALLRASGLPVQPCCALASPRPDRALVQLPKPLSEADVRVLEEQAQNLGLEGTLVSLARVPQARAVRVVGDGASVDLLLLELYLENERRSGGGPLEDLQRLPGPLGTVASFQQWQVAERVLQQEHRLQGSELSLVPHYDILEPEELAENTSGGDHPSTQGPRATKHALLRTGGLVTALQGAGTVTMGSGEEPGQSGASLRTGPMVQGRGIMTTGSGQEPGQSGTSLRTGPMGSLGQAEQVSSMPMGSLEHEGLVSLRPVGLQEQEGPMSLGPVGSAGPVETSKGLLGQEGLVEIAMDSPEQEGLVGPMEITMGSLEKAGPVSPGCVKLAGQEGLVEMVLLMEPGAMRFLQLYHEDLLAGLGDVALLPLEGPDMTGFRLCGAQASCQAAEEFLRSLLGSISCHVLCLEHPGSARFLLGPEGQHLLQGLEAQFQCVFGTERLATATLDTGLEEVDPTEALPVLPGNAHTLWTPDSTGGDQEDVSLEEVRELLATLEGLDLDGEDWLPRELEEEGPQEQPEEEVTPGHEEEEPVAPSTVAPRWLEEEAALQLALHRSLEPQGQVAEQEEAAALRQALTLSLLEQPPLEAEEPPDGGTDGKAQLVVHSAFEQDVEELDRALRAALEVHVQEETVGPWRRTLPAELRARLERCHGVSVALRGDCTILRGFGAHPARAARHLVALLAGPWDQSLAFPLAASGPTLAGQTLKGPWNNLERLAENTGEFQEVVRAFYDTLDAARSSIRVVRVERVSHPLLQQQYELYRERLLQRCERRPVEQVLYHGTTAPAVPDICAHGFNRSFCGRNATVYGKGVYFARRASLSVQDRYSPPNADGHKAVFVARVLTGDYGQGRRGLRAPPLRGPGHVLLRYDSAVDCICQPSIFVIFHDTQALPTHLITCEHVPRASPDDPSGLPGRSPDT

[7] = biological target: Poly [ADP-ribose] polymerase 1 (Homo sapiens, UniProt P09874); experiment: Inhibition of full-length human ARTD1 using 500 nM NAD substrate after 1 hr incubation
[8] = biological target: T5, Protein mono-ADP-ribosyltransferase PARP3 (Homo sapiens, UniProt Q9Y6F1); experiment: Inhibition of full-length human ARTD3 using 500 nM NAD substrate after 1 hrs incubation
T5 sequence (Q9Y6F1 whole entry): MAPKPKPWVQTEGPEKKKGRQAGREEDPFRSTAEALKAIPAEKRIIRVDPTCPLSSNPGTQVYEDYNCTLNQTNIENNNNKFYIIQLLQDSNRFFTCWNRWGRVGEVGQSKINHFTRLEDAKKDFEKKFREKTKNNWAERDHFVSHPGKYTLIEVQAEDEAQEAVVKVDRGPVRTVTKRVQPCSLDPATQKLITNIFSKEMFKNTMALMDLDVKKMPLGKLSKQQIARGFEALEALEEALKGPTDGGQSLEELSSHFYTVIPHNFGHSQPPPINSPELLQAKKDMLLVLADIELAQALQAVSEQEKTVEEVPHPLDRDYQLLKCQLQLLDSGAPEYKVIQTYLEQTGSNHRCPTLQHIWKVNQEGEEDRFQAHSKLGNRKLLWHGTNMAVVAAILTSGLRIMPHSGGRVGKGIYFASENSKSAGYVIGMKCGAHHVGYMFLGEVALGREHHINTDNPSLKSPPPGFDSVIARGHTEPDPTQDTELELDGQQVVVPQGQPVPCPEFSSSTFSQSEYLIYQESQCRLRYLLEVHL

[9] = biological target: T3, Protein mono-ADP-ribosyltransferase PARP15; experiment: Inhibition of human ARTD7 (460 to 656) using 250 nM NAD substrate at 10 uM after 2 hrs incubation
[10] = biological target: T4, Protein mono-ADP-ribosyltransferase PARP10; experiment: Inhibition of human ARTD10 (809 to 1017) using 500 nM NAD substrate at 10 uM after 2.5 hrs incubation

Chain of Protein mono-ADP-ribosyltransferase PARP4 (Q9UKK3 whole entry): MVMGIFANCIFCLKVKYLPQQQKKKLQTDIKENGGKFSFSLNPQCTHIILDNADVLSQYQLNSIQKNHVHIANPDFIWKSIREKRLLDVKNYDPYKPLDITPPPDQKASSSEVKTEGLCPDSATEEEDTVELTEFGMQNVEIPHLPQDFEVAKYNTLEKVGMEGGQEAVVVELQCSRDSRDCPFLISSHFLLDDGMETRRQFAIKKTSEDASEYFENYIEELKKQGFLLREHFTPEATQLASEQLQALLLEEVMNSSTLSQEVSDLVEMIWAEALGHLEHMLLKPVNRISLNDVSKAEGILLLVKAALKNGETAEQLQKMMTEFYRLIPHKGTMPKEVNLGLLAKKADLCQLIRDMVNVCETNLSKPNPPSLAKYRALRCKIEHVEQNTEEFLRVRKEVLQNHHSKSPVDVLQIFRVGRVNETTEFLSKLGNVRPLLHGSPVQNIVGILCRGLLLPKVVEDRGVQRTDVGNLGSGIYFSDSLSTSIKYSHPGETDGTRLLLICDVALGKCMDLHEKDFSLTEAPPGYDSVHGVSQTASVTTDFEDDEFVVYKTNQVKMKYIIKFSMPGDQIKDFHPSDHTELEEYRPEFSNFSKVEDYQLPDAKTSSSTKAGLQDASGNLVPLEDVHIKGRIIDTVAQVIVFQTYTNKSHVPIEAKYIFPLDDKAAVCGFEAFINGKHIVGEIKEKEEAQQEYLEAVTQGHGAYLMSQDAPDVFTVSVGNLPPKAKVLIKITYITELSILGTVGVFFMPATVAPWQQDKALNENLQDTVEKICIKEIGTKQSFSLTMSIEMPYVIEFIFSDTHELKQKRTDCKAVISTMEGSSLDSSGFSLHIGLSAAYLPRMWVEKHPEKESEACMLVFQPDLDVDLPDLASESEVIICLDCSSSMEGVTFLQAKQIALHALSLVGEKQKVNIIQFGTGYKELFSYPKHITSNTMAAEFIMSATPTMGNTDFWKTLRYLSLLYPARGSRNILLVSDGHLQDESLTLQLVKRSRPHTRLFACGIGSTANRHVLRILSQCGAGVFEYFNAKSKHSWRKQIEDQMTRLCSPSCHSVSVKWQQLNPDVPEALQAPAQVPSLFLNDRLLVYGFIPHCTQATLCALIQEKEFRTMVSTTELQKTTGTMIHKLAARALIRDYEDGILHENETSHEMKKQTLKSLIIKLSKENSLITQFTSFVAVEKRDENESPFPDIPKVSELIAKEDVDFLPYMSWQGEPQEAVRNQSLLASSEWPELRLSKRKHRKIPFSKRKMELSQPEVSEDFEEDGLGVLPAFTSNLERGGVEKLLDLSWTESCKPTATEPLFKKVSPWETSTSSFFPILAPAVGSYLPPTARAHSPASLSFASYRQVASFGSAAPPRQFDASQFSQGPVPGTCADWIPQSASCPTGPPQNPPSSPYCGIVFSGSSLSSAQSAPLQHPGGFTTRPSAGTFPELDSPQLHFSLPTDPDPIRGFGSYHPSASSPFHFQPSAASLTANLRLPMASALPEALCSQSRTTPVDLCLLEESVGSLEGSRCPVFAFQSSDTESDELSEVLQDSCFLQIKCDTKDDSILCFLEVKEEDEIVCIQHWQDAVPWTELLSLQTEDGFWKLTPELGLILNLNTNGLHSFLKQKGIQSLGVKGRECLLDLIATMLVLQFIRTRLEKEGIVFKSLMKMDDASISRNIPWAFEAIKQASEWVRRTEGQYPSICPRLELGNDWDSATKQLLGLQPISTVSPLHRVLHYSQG
Chain of Poly [ADP-ribose] polymerase 2 (Q9UGN5 whole entry): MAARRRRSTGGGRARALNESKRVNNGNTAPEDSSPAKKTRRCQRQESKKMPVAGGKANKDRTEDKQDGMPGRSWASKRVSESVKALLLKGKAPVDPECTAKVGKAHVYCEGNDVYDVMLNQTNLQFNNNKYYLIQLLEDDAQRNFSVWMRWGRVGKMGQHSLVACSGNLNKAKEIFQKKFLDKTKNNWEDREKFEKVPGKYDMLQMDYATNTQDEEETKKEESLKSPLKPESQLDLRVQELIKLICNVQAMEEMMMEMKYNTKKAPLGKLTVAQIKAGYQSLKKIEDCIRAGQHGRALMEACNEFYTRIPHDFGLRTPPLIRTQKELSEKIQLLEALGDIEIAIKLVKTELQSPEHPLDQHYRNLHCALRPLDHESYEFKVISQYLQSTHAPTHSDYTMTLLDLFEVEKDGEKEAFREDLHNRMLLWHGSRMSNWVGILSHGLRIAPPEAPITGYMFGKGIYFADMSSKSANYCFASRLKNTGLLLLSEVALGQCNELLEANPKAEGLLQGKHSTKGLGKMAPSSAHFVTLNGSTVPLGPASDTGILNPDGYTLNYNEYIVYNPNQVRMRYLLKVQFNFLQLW
Chain of Poly [ADP-ribose] polymerase 1 (P09874 whole entry): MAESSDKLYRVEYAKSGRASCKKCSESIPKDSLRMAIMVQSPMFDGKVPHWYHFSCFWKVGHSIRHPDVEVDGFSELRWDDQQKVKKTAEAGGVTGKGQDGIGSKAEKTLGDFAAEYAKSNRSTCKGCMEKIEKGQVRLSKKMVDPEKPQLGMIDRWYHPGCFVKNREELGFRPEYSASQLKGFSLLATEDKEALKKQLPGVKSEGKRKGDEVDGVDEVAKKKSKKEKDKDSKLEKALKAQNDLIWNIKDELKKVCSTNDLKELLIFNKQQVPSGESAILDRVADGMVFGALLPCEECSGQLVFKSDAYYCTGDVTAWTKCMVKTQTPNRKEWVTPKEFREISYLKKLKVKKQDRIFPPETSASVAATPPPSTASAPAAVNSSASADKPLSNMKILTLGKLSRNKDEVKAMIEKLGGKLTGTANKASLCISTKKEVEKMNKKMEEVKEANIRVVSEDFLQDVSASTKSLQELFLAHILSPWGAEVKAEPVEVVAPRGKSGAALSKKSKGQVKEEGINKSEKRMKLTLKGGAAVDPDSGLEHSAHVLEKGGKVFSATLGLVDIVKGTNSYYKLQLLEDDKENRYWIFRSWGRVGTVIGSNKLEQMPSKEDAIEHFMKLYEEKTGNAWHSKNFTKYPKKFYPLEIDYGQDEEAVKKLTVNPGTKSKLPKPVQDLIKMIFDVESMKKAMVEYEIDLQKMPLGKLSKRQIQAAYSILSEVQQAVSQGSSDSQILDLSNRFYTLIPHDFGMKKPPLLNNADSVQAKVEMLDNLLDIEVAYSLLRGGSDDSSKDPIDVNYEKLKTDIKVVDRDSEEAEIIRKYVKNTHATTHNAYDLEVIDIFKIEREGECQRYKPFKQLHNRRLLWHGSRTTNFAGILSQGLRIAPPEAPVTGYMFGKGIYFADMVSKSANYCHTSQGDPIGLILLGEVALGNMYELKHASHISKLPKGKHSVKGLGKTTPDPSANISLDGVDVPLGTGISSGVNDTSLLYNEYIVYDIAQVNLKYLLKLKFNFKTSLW

Row | SMILES | pIC50 [1] | Activity (HEK293) | pIC50 [2] | pIC50 [3] | pIC50 [4] | also measured
1 | COc1ccc(C2NC(=O)c3ccccc3N2)cc1 (centres undefined) | 6.00 | – | – | – | – | –
2 | O=C1NC(c2ccc(Cl)cc2)Nc2ccccc21 (centres undefined) | 6.39 and 6.38 | – | – | – | – | –
3 | O=C1NC(c2ccccc2Cl)Nc2ccccc21 (centres undefined) | 4.51 | – | – | – | – | –
4 | O=C1NC(c2cccc(OCc3ccccc3)c2)Nc2ccccc21 (centres undefined) | 5.14 | – | – | – | – | –
5 | CCc1c(C)nc(N2CCN(c3ccccc3F)CC2)nc1O | 6.14 | – | – | – | – | –
6 | O=c1[nH]c(N2CCN(Cc3ccncc3)CC2)nc2c1CCCC2 | – | Non-toxic | 6.43 | 5.38 | 4.48 | pIC50 [5]: < 5.00; pIC50 [6]: 5.27
7 | CN1CCN(c2nc3c(c(=O)[nH]2)CCCC3)CC1 | – | Non-toxic | 5.20 | 5.44 | 4.77 | pIC50 [5]: < 5.00; pIC50 [6]: < 5.00
8 | CN1c2ncccc2C(=O)NC1c1ccc(NC(=O)C2CCOCC2)cc1 (centres undefined) | 5.18 | – | – | – | – | –
9 | O=c1[nH]c(N2CCNCC2)nc2c1CCO2 | < 4.00 | – | – | – | – | –
10 | O=C1NC(c2ccccc2Cl)Nc2ncccc21 (centres undefined) | 3.85 | – | – | – | – | –
11 | O=C1NC(c2cccc(OCc3ccccc3)c2)Nc2ncccc21 (centres undefined) | 3.64 | – | – | – | – | –
12 | CC(C)c1ccc(C2NC(=O)c3ccccc3N2)cc1 (centres undefined) | 6.64 and 6.63 | Non-toxic | 5.96 | < 4.00 | < 4.00 | pIC50 [7]: < 4.00; pIC50 [8]: 4.30; pIC50 [9]: < 5.00; pIC50 [10]: < 5.00
13 | CC(C)(C)c1ccc(C2NC(=O)c3ccccc3N2)cc1 (centres undefined) | 6.82 and 6.81 | Non-toxic | 6.21 | < 4.00 | < 4.00 | pIC50 [7]: < 4.00; pIC50 [8]: 4.47; pIC50 [9]: < 5.00; pIC50 [10]: < 5.00

Reference: ChEMBL document CHEMBL3593161, “Discovery of potent and selective nonplanar tankyrase inhibiting nicotinamide mimics” (Bioorg Med Chem, 2015)
